Source: publication PMC8589421, “Impact of Type II LRRK2 inhibitors on signaling and mitophagy” (Biochemical Journal, 2021)
Read-outs that look alike come from different tables or passages of the source.

Experiments:
[1] = system: Rab10 pThr73, LRRK2 [G2019S]; test: Rab10 Thr73 phospho-immunoblot in LRRK2[G2019S] knock-in MEFs; format: cell-based, mouse; details: LRRK2[G2019S] knock-in MEFs, 2 h, read-out: LRRK2 [G2019S] Rab10 pThr73 IC50
Method: Wild-type and homozygous LRRK2 [R1441C] (Jax, stock number: 009346), LRRK2[G2019S] Taconic, (model 13940) and LRRK2 [A2016T] (Jax, stock number: 021828)[7] knock-in MEF cells were isolated from littermate-matched mouse embryos on a C57BL/6J background at day E12.5 as described previously. MEFs were grown in Dulbecco's modified Eagle medium (DMEM GIBCO, #11960-085) containing 10% (by vol) fetal bovine serum (FBS), 2 mM L-glutamine, 100 U/ml penicillin, and […] streptomycin supplemented with non-essential amino acids and 1 mM sodium pyruvate. Human embryonic kidney 293 (HEK293) (#ATCC CRL-1573) and HeLa (#ATCC CCL-2) cells were purchased from American Tissue Culture Collection (ATCC) and cultured in DMEM containing 10% (by vol) FBS, 2 mM L-glutamine, 100 U/ml penicillin, and […] streptomycin. All cells were grown at 37°C, 5% (by vol) CO2 in a humidified atmosphere and regularly tested for mycoplasma contamination.
Inhibitors were dissolved in dimethyl sulfoxide (DMSO) (Sigma, #D2650). The inhibitors were diluted 1000× into cell medium. The equivalent volume of DMSO was added to the minus inhibitor controls. Experiments were performed in six-well plates, 10 cm dishes or 15 cm dishes depending on the amount of cell extract required.
Cells were lysed in an ice-cold lysis buffer containing 50 mM Tris–HCl, pH 7.4, 1% (by vol) Triton X-100, 10% (by vol) glycerol, 150 mM NaCl, 1 mM sodium orthovanadate, 50 mM NaF, 10 mM 2-glycerophosphate, 5 mM sodium pyrophosphate, 1 µg/ml microcystin-LR, and cOmplete EDTA-free protease inhibitor cocktail (Roche, #11836170001). Lysates were incubated on ice for 30 min and clarified by centrifugation at 20 800×g at 4°C for 20 min. Supernatants were quantified by Bradford assay (Bio-Rad Protein Assay Dye Reagent Concentrate #5000006) and samples prepared in 1× lithium dodecyl sulfate sample buffer final concentration (NuPage LDS Sample buffer 4× Invitrogen, #NP0008). When not deployed immediately, lysates were snap-frozen in liquid nitrogen and stored at −80°C until use. […]

[2] = system: basal mitophagy, LRRK2 knock-out MEFs; test: mito-QC basal mitophagy in LRRK2 knock-out primary MEFs; format: cell-based, mouse; details: 24 h
Method: To assess mitophagy, wild type, G2019S knock in, and LRRK2 knock out primary mouse embryonic fibroblasts (MEFs) were derived, from time-mated pregnant females at E12.5 as previously described. Briefly, cells were plated on glass coverslips and incubated with DMEM (Gibco, 11960-044) supplemented with 10% FBS, 2 mM L-Glutamine (Gibco, 2503-081), 1% non-essential amino acids (Gibco, 11140-035), 1% Antibiotics (Penicillin/Streptomycin 100 U/ml penicillin and 100 µg/ml streptomycin; Gibco), and 150 µM β-Mercaptoethanol (Gibco, 21985-023) at 37°C under a humidified 5% CO2 atmosphere. […] GSK3357679A 100 nM (Ding et al., in prep) was used as a positive control. At the end of the treatment, MEFs were briefly washed twice in DPBS (Gibco, 14190-094), and fixed in 3.7% Paraformaldehyde pH 7.00 (Sigma, P6148), 200 mM HEPES, for 20 min. Cells were then washed two times with DMEM, 10 mM HEPES, and then incubated for 10 min with DMEM, 10 mM HEPES. […] Images were acquired using a Nikon Eclipse Ti-S fluorescence microscope with a 63× objective. Images were analyzed using the mito-QC counter as previously described. Experiments were performed in 3–4 independent experiments and data was analyzed with a one-way ANOVA followed by a Dunnett's multiple comparison test using the GraphPad Prism software (version 8.4.3 (686)).

Cc1ccc(C(=O)Nc2ccc(CN3CCN(C)CC3)c(C(F)(F)F)c2)cc1C#Cc1cnc2[nH]ncc2c1 [GZD-824]
IC50 [1]: 233 nM | IC50 ([1]; Mus musculus): 233 nM | impact on basal mitophagy in LRRK2 knock-out cells [2]: neither GZD-824 or GSK3357679A impacted basal mitophagy
